Assay results: ChEMBL document CHEMBL4177733, “(-)-9'-O-(α-l-Rhamnopyranosyl)lyoniresinol from Lespedeza cuneata suppresses ovarian cancer cell proliferation through induction of apoptosis” (Bioorg Med Chem Lett, 2018)
Active and inactive are the calls of the source. No cut-off for these calls is given here.

Tests used:
A2780 [1] = assay: Cytotoxicity against human A2780 cells assessed as reduction in cell viability at 5 to 100 uM incubated for 24 hrs by MTT assay; assay type: functional, cell-based
A2780 [2] = assay: Induction of apoptosis in human A2780 cells assessed as caspase-8 activation at 50 to 100 uM incubated for 24 hrs by Western blot; assay type: functional, cell-based
A2780 [3] = assay: Induction of apoptosis in human A2780 cells assessed as increase in BAX protein level at 50 to 100 uM incubated for 24 hrs by Western blot; assay type: functional, cell-based
A2780 [4] = assay: Induction of apoptosis in human A2780 cells assessed as induction of cell blebbing at 50 to 100 uM incubated for 24 hrs by Hoechst 33342 staining based fluorescence microscopy; assay type: functional
A2780 [5] = assay: Induction of apoptosis in human A2780 cells assessed as caspase-3 activation at 50 to 100 uM incubated for 24 hrs by Western blot; assay type: functional, cell-based
A2780 [6] = assay: Induction of apoptosis in human A2780 cells assessed as induction of cell condensation at 50 to 100 uM incubated for 24 hrs by Hoechst 33342 staining based fluorescence microscopy; assay type: functional
MCF7 = assay: Cytotoxicity against human MCF7 cells assessed as reduction in cell viability at 5 to 100 uM incubated for 24 hrs by MTT assay; assay type: functional, cell-based
LLC-PK1 = assay: Cytotoxicity against LLC-PK1 cells assessed as reduction in cell viability at 5 to 100 uM incubated for 24 hrs by MTT assay; assay type: cell-based; conditions: Sus scrofa, LLC-PK1, 24 h
A2780 [7] = assay: Induction of apoptosis in human A2780 cells assessed as induction of cell shrinkage at 50 to 100 uM incubated for 24 hrs by Hoechst 33342 staining based fluorescence microscopy; assay type: functional
A2780 [8] = assay: Induction of apoptosis in human A2780 cells assessed as PARP cleavage at 50 to 100 uM incubated for 24 hrs by Western blot; assay type: functional, cell-based
A2780 [9] = assay: Induction of apoptosis in human A2780 cells assessed as caspase-9 activation at 50 to 100 uM incubated for 24 hrs by Western blot; assay type: functional, cell-based
HeLa = assay: Cytotoxicity against human HeLa cells assessed as reduction in cell viability at 5 to 100 uM incubated for 24 hrs by MTT assay; assay type: functional, cell-based
A2780 [10] = assay: Induction of apoptosis in human A2780 cells assessed as BID cleavage at 50 to 100 uM incubated for 24 hrs by Western blot; assay type: functional, cell-based
A2780 [11] = assay: Induction of apoptosis in human A2780 cells assessed as reduction in Bcl-2 protein level at 50 to 100 uM incubated for 24 hrs by Western blot; assay type: functional, cell-based

Q: For COc1cc(C(=O)O)cc(OC)c1O, which Activity (A2780 [1]) is on record?
A: Active

Q: For COc1cc([C@@H]2c3c(cc(OC)c(O)c3OC)C[C@H](CO)[C@H]2CO[C@@H]2O[C@@H](C)[C@H](O)[C@@H](O)[C@H]2O)cc(OC)c1O, which Activity (A2780 [2]) is on record?
A: Active

Q: What about the Activity (A2780 [3]) of the same compound?
A: Active

Q: What about the Activity (A2780 [4]) of the same compound?
A: Active

Q: What about the Activity (A2780 [5]) of the same compound?
A: Active

Q: And the Activity (A2780 [1])?
A: Dose-dependent effect

Q: What about the IC50 (A2780 [1]; A2780, 24 h) of the same compound?
A: 35.4 µM

Q: And the Activity (A2780 [6])?
A: Active

Q: And the Activity (MCF7)?
A: inactive

Q: What about the IC50 (LLC-PK1) of the same compound?
A: > 100 µM

Q: And the Activity (A2780 [7])?
A: Active

Q: What about the Activity (A2780 [8]) of the same compound?
A: Active

Q: What about the Activity (A2780 [9]) of the same compound?
A: inactive

Q: What about the Activity (HeLa) of the same compound?
A: inactive

Q: What about the Activity (A2780 [10]) of the same compound?
A: Active

Q: What about the Activity (A2780 [11]) of the same compound?
A: Active

Q: For O=c1c(O)c(-c2ccc(O)cc2)oc2cc(O[C@@H]3O[C@H](CO)[C@@H](O)[C@H](O)[C@H]3O)cc(O)c12, which Activity (A2780 [1]) is on record?
A: inactive

Q: COc1cc2c(cc1O)[C@H](c1cc(OC)c(O)c(OC)c1)[C@@H](CO[C@@H]1O[C@@H](C)[C@H](O)[C@@H](O)[C@H]1O)[C@H](CO)C2 was tested. Which Activity (A2780 [1]) did it give?
A: inactive

Q: Which Activity (A2780 [1]) does the source give for COc1cc([C@@H]2c3cc(O)c(OC)cc3C[C@H](CO)[C@H]2CO[C@@H]2O[C@@H](C)[C@H](O)[C@@H](O)[C@H]2O)ccc1O here?
A: inactive

Q: For COc1cc(C(=O)O)ccc1O, which Activity (A2780 [1]) is on record?
A: inactive

Q: COc1cc([C@H]2c3cc(O)c(OC)cc3C[C@@H](CO)[C@@H]2CO[C@@H]2O[C@@H](C)[C@H](O)[C@@H](O)[C@H]2O)ccc1O was tested. Which Activity (A2780 [1]) did it give?
A: inactive

Q: O=c1c(O[C@@H]2O[C@H](CO)[C@@H](O)[C@H](O)[C@H]2O)c(-c2ccc(O)cc2)oc2cc(O)cc(O)c12 was tested. Which Activity (A2780 [1]) did it give?
A: inactive

Q: For O=c1cc(-c2ccc(O)c(O)c2)oc2c([C@@H]3O[C@H](CO)[C@@H](O)[C@H](O)[C@H]3O)c(O)cc(O)c12, which Activity (A2780 [1]) is on record?
A: inactive
